Experimental data published in patent US12209087B2, “AKT1 modulators” (Alterome Therapeutics, Inc., priority 2022, dated 2025).

biological target: T1, full length AKT E17K (Homo sapiens, UniProt P31749, E17K); test: NanoBRET Target Engagement (TE) Assay; type: cell-based; conditions: competitive displacement of tracer in cells, read-out: AKT1 E17K IC50
T1 construct: host or cells: HEK-293 (ATCC CRL-1573)
From the text: The NanoBRET™ Target Engagement (TE) Intracellular Kinase Assays are based on the NanoBRET™ System (Promega Corporation), an energy transfer technique designed to measure molecular proximity in living cells. The NanoBRET™ TE Assays measure the apparent affinity of test compounds by competitive displacement of the NanoBRET™ tracer compound, which is a cell permeable molecule engineered to be reversibly bound to a NanoLuc® luciferase-kinase fusion expressed in cells. For compound screening, when a test compound binds to the selected kinase, the BRET signal is attenuated. […] All cells were evaluated for viability prior to transfection and optimization of the transfection was done prior to experimentation. […] Following transfection, cells were washed and resuspended in Opti-MEM. NanoBRET assays were performed in white, 384-well plates (Corning) at a density of […]. All example compounds were prepared as concentrated stock solutions in DMSO (Sigma-Aldrich). Compounds are dissolved in DMSO to make 10 mM stock solution. […] A Labcyte ECHO 550 compound dispenser was used to facilitate compound transfer directly to cells. Cells were equilibrated for 2 hr with energy transfer probes and example compound prior to BRET measurements. […] For target engagement analysis, the energy transfer probes were added to the cells at concentrations optimized for the target in question (AKT E17K). Following compound incubation, NanoBRET NanoGlo Substrate (Promega Cat #N157D) and Extracellular Nanoluc Inhibitor (Promega Cat #N235C) was added according to the manufacturer's recommended protocol, and luminescence was measured on Envision Reader (Perkin Elmer) Multimode Luminometer equipped with 450 nm BPfilter (donor) and 600 nm LPfilter (acceptor), using 0.5 s integration time. Milli-BRET units (mBU) are calculated by multiplying the raw BRET values by 1000. Apparent tracer affinity values (EC50) were determined using the sigmoidal dose-response (variable slope).
Competitive displacement data were then plotted and data were fit to determine the EC50 value for each example compound.

T1 sequence (P31749 whole entry E17K): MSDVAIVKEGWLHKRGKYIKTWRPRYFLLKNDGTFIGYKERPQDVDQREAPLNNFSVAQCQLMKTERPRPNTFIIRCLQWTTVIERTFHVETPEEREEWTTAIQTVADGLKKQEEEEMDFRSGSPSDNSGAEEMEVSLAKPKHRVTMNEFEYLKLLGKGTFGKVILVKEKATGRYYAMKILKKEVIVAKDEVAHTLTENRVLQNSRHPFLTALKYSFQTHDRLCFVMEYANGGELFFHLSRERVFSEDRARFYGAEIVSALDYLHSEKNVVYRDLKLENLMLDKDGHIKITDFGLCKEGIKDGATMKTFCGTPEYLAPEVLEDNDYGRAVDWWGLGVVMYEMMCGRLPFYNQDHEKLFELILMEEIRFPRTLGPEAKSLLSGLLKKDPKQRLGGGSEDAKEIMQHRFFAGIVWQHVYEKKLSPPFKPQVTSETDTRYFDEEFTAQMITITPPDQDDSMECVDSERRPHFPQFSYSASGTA

IC50	Compound
< 15 nM	Cc1cncc(-c2ccc3nc(-c4cccnc4N)n(-c4ccc(CN5CCC(Nc6ccnc(C#N)n6)CC5)cc4)c3n2)c1 [Example 478, 4-((1-(4-(2-(2-Aminopyridin-3-yl)-5-(5-methylpyridin-3-yl)-3H-imidazo[4,5-b]pyridin-3-yl)benzyl)piperidin-4-yl)amino)pyrimidine-2-carbonitrile]
< 15 nM	COC(=O)Nc1cccc(-c2ccc3nc(-c4cccnc4N)n(-c4ccc(CN5CCC(Nc6ccnc(C#N)n6)CC5)cc4)c3n2)c1 [Example 520, Methyl (3-(2-(2-aminopyridin-3-yl)-3-(4-((4-((2-cyanopyrimidin-4-yl)amino)piperidin-1-yl)methyl)phenyl)-3H-imidazo[4,5-b]pyridin-5-yl)phenyl)carbamate]
15 to 60 nM	Cn1cnc(-c2ccc3nc(-c4cccnc4N)n(-c4ccc(CN5CCC(Nc6ccnc(C#N)n6)CC5)cc4)c3n2)n1 [Example 559, 4-((1-(4-(2-(2-Aminopyridin-3-yl)-5-(1-methyl-1H-1,2,4-triazol-3-yl)-3H-imidazo[4,5-b]pyridin-3-yl)benzyl)piperidin-4-yl)amino)pyrimidine-2-carbonitrile]
15 to 60 nM	N#Cc1nccc(NC2CCN(Cc3ccc(-n4c(-c5c(F)ccnc5N)nc5ccc(-c6ccc(F)cn6)nc54)cc3)CC2)n1 [Example 600, 4-((1-(4-(2-(2-Amino-4-fluoropyridin-3-yl)-5-(5-fluoropyridin-2-yl)-3H-imidazo[4,5-b]pyridin-3-yl)benzyl)piperidin-4-yl)amino)pyrimidine-2-carbonitrile]
15 to 60 nM	Cc1nncn1-c1ccc2nc(-c3cccnc3N)n(-c3ccc(CN4CCC(Nc5ccnc(C#N)n5)CC4)cc3)c2n1 [Example 588, 4-((1-(4-(2-(2-aminopyridin-3-yl)-5-(3-methyl-4H-1,2,4-triazol-4-yl)-3H-imidazo[4,5-b]pyridin-3-yl)benzyl)piperidin-4-yl)amino)pyrimidine-2-carbonitrile]
60 to 600 nM	N#Cc1nccc(NC2CCN(Cc3ccc(-n4c(-c5cccnc5N)nc5ccc(OC(F)(F)F)nc54)cc3)CC2)n1 [Example 423, 4-((1-(4-(2-(2-Aminopyridin-3-yl)-5-(trifluoromethoxy)-3H-imidazo[4,5-b]pyridin-3-yl)benzyl)piperidin-4-yl)amino)pyrimidine-2-carbonitrile]

Compound	IC50
CN(c1ccnc(C#N)n1)C1CCN(Cc2ccc(-n3c(-c4cccnc4N)nc4cccnc43)cc2)CC1 [Example 390, 4-((1-(4-(2-(2-Aminopyridin-3-yl)-3H-imidazo[4,5-b]pyridin-3-yl)benzyl)piperidin-4-yl)(methyl)amino)pyrimidine-2-carbonitrile]	< 15 nM

same assay, conditions: competitive tracer displacement in living cells, read-out: AKT1 E17K IC50

IC50	Compound
600 to 10000 nM	N#Cc1cc(NC2CCN(Cc3ccc(-n4c(-c5cccnc5N)nc5cccnc54)cc3)CC2)ccn1 [Example 62, 4-((1-(4-(2-(2-Aminopyridin-3-yl)-3H-imidazo[4,5-b]pyridin-3-yl)benzyl)piperidin-4-yl)amino)picolinonitrile]
15 to 60 nM	N#Cc1ncnc(NC2CCCN(Cc3ccc(-n4c(-c5cccnc5N)nc5ccc(-c6ccccc6)nc54)cc3)CC2)n1 (centres unmarked) [Example 278, 4-((1-(4-(2-(2-Aminopyridin-3-yl)-5-phenyl-3H-imidazo[4,5-b]pyridin-3-yl)benzyl)azepan-4-yl)amino)-1,3,5-triazine-2-carbonitrile]
60 to 600 nM	C[C@H]1CN(Cc2ccc(-n3c(-c4cccnc4N)nc4ccc(-c5ccccc5)nc43)cc2)CCN1c1nccc(C#N)n1 [Example 207, (S)-2-(4-(4-(2-(2-Aminopyridin-3-yl)-5-phenyl-3H-imidazo[4,5-b]pyridin-3-yl)benzyl)-2-methylpiperazin-1-yl)pyrimidine-4-carbonitrile]
60 to 600 nM	N#Cc1ccc(OC2CCN(Cc3ccc(-n4c(-c5cccnc5N)nc5ccc(-c6ccccc6)nc54)cc3)CC2)nc1 [Example 2, 6-((1-(4-(2-(2-Aminopyridin-3-yl)-5-phenyl-3H-imidazo[4,5-b]pyridin-3-yl)benzyl)piperidin-4-yl)oxy)nicotinonitrile]
